Experimental data from US10087421B2, “Stem cell suspension” (OTSUKA PHARMACEUTICAL FACTORY, INC., priority 2010, dated 2018).

Assays:
[1] = tested on: Swine subcutaneous adipose tissue-derived mesenchymal stem cells (Pig AT-MSCs); experiment: Microscopic observation of cell aggregate mass and cell floating state; format: cell-based; settings: from dilution series of ET-K with saline; Pig AT-MSCs P2; 25° C.
Description: The suspension was left standing at each temperature (0, 25, and 37° C.), pipetted several times with 20 μL PIPETMAN 0, 30, 60, 120 and 240 min later, and 10 μL thereof was transferred to a dish. A stereomicroscope was focused on the lowermost surface of the suspension on the dish, and observation was performed. The cells forming a mass with adjacent cells under the microscope were taken as cell aggregate mass. The cell aggregate mass was confirmed to be obviously moving as a mass by shaking the dish on the stage of the microscope. The swine subcutaneous adipose tissue-derived mesenchymal stem cells prepared in Example 1 were passaged twice and the obtained cells (Pig AT-MSCs P2) were plated on three 10 cm-dishes. The cells were washed three times with 5 ml PBS(−) per 10 cm dish, and detached by treating with 1 ml trypsin-EDTA (0.25% trypsin, 1 mM EDTA·4Na) for 20 sec into a single-cell state. […] Thereafter, in the same manner as in Example 1, the survival rate was calculated and the presence or absence of the cell aggregate mass was observed. […] Thereafter, in the same manner as in Example 1, the survival rate was calculated and the presence or absence of a cell aggregate mass was observed. […]

[2] = tested on: hAT-MSC P3 and hBM-MSC P3; experiment: Cell morphology, culture after standing and survival, results not separated by cell type; format: cell-based, human; settings: trehalose in HESPANDER; 36 hr (Example 6)
Description: The cells obtained by passaging hAT-MSCs and hBM-MSCs three times (hAT-MSC P3 and hBM-MSC P3) were plated on 10-cm dishes. The cells were washed three times with 5-ml PBS(−) per 10-cm dish, and detached by treating with 1-ml trypsin-EDTA (0.25% trypsin, 1 mM EDTA·4Na) for 20 sec into a single-cell state. […] After standing at room temperature (about 25° C.) for 240 min or 24 hr, the survival rate of the cells was measured, and the cell aggregation and morphology were observed. Furthermore, after standing for 240 min or 24 hr, the cells were further cultured for 12 hr and the cell morphology was observed.
hAT-MSCs and hBM-MSCs were passaged three times and the obtained cells (hAT-MSCs P3 and hBM-MSCs P3) were plated on 10 cm-dishes. The cells were washed three times with 5-ml PBS(−) per 10-cm dish, and detached by treating with 1-ml trypsin-EDTA (0.25% trypsin, 1 mM EDTA·4Na) for 20 sec into a single-cell state. The obtained cells (hAT-MSCs P3, 4.25×10^5 cells; survival rate, 97.5%: hBM-MSCs P3, 5.0×10^5 cells; survival rate, 98.2%) were transferred to a 15-ml FALCON tube, recovered by centrifugation, washed twice with PBS(−), and suspended in the following composition solution (100 μL). After standing at room temperature (about 25° C.) for 8 hr or 36 hr, the survival rate of the cells was measured and the cell aggregation was observed.

[3] = tested on: hAT-MSCs P8 and hBM-MSCs P6; experiment: Survival rate, cell aggregation and floating after standing for 1 hr (Example 7); format: cell-based, human; settings: about 25° C.
Description: hAT-MSCs and hBM-MSCs were passaged 6 or 8 times and the obtained cells (hAT-MSCs P8 and hBM-MSCs P6) were plated on 10 cm-dishes. The cells were washed three times with 5-ml HESPANDER (KYORIN Pharmaceutical Co., Ltd.) per 10-cm dish, and detached by treating with 1-ml trypsin-EDTA (0.25% trypsin, 1 mM EDTA·4Na) for 20 sec into a single-cell state. The obtained cells (hAT-MSCs P8, 2.4×10^6 cells; hBM-MSCs P6, 2.3×10^6 cells) were transferred to a 15-ml FALCON tube, recovered by centrifugation, and suspended in the following composition solution. After standing at room temperature (about 25° C.) for 1 hr, the survival rate of the cells was measured and the cell aggregation was observed.

SMILES: OC[C@H]1O[C@H](O[C@H]2O[C@H](CO)[C@@H](O)[C@H](O)[C@H]2O)[C@H](O)[C@@H](O)[C@@H]1O [trehalose]
- trehalose concentration at which a stem cell aggregation suppressive effect is exhibited [1]: not less than 15.1 mg/ml
- trehalose concentration at which the stem cells float stably [1]: at least 15.1 mg/ml
- trehalose concentration suggested to be preferable to increase the cell survival rate [2]: not more than 181.2 mg/mL
- cell aggregation suppressive effect [3]: observed
- cell floating effect [3]: observed
- protrusion from the cell / on the cell surface [3]: suppressed
- cell survival rate ([3]; added to HESPANDER): higher than by adding HESPANDER (H) alone
- effect on the cytotoxicity of fucoidan ([3]; trehalose with 10 μg/ml fucoidan in HESPANDER): tendency to suppress the cytotoxicity of fucoidan
